Results: paper PMC5218480 (PLoS ONE, 2017)

System: MV-4-11 cells
Experiment: Gene expression microarray analysis (Affymetrix PrimeView) and GSEA
Type: cell-based, human
Set-up: RFU PODN (11730768_x_at) / Fold change /veh PODN (11730768_x_at) / RFU LINC00158 (11744669_a_at) / Fold change /veh LINC00158 (11744669_a_at) / RFU DUSP10 (11751237_a_at) / Fold change /veh DUSP10 (11751237_a_at) / RFU ID3 (11757404_x_at) / Fold change /veh ID3 (11757404_x_at) / RFU PLEKHG5 (11737974_s_at) / Fold change /veh PLEKHG5 (11737974_s_at) / RFU LRRC4B (11730491_at) / Fold change /veh LRRC4B (11730491_at) / RFU GIMAP4 (11747438_a_at) / Fold change /veh GIMAP4 (11747438_a_at) / RFU KRT8 (11758183_x_at) / Fold change /veh KRT8 (11758183_x_at) / RFU CNN1 (11734310_a_at) / Fold change /veh CNN1 (11734310_a_at) / RFU VPS37D (11726825_at) / Fold change /veh VPS37D (11726825_at) / RFU C10orf10 (11716522_x_at) / Fold change /veh C10orf10 (11716522_x_at) / RFU KIR2DL2 /// KIR2DL4 /// KIR2DL5A /// KIR2DL5B /// KIR2DS1 /// KIR2DS2 /// KIR2DS3 /// KIR2DS4 /// KIR3DL3 /// KIR3DL3 /// KIR3DS1 (11738374_at) / Fold change /veh KIR2DL2 /// KIR2DL4 /// KIR2DL5A /// KIR2DL5B /// KIR2DS1 /// KIR2DS2 /// KIR2DS3 /// KIR2DS4 /// KIR3DL3 /// KIR3DL3 /// KIR3DS1 (11738374_at) / RFU C1QL1 (11718748_at) / Fold change /veh C1QL1 (11718748_at) / RFU TMPRSS4 (11747572_a_at) / Fold change /veh TMPRSS4 (11747572_a_at) / RFU HAMP (11756126_x_at) / Fold change /veh HAMP (11756126_x_at) / RFU RNFT2 (11725882_a_at) / Fold change /veh RNFT2 (11725882_a_at) / RFU NR4A2 (11747474_a_at) / Fold change /veh NR4A2 (11747474_a_at) / RFU ABCC12 (11746883_a_at) / Fold change /veh ABCC12 (11746883_a_at) / RFU TMEM136 (11760407_x_at) / Fold change /veh TMEM136 (11760407_x_at) / RFU CLDN22 /// WWC2 (11732394_at) / Fold change /veh CLDN22 /// WWC2 (11732394_at) / RFU HLA-DPB1 (11760878_x_at) / Fold change /veh HLA-DPB1 (11760878_x_at) / RFU SPINT1 (11716480_a_at) / Fold change /veh SPINT1 (11716480_a_at) / RFU GAP43 (11754022_s_at) / Fold change /veh GAP43 (11754022_s_at) / RFU A4GNT (11735810_at) / Fold change /veh A4GNT (11735810_at) / RFU PRB3 (11715151_x_at) / Fold change /veh PRB3 (11715151_x_at) / RFU TUBB4B (11761932_at) / Fold change /veh TUBB4B (11761932_at) / RFU CAPN14 (11732068_a_at) / Fold change /veh CAPN14 (11732068_a_at) / RFU TMCC2 (11721928_a_at) / Fold change /veh TMCC2 (11721928_a_at) / RFU IRGQ (11745062_a_at) / Fold change /veh IRGQ (11745062_a_at) / RFU FAM174B (11720279_a_at) / Fold change /veh FAM174B (11720279_a_at) / RFU TMPRSS4 (11748680_a_at) / Fold change /veh TMPRSS4 (11748680_a_at) / RFU FAM212B (11763350_a_at) / Fold change /veh FAM212B (11763350_a_at) / RFU PLEKHG5 (11743358_a_at) / Fold change /veh PLEKHG5 (11743358_a_at) / RFU ZSCAN30 (11745921_a_at) / Fold change /veh ZSCAN30 (11745921_a_at) / RFU CMKLR1 (11741424_a_at) / Fold change /veh CMKLR1 (11741424_a_at) / RFU LOC101060620 /// MAPK8IP1 (11723275_at) / Fold change /veh LOC101060620 /// MAPK8IP1 (11723275_at) / RFU SPTSSB (11747773_x_at) / Fold change /veh SPTSSB (11747773_x_at) / RFU PRSS12 (11739890_at) / Fold change /veh PRSS12 (11739890_at) / RFU BIN1 (11741810_x_at) / Fold change /veh BIN1 (11741810_x_at) / RFU WNT11 (11732464_a_at) / Fold change /veh WNT11 (11732464_a_at) / RFU C10orf10 (11716521_a_at) / Fold change /veh C10orf10 (11716521_a_at) / RFU C5orf56 (11738089_at) / Fold change /veh C5orf56 (11738089_at) / RFU CYB561 (11721691_x_at) / Fold change /veh CYB561 (11721691_x_at) / RFU ANKRD19P (11752326_a_at) / Fold change /veh ANKRD19P (11752326_a_at) / RFU OR2T12 /// OR2T33 /// OR2T8 (11738714_s_at) / Fold change /veh OR2T12 /// OR2T33 /// OR2T8 (11738714_s_at) / RFU VCAN (11748164_a_at) / Fold change /veh VCAN (11748164_a_at) / RFU JSRP1 (11732532_at) / Fold change /veh JSRP1 (11732532_at) / RFU KRTAP10-11 (11738290_x_at) / Fold change /veh KRTAP10-11 (11738290_x_at) / RFU MYO3A (11730013_a_at) / Fold change /veh MYO3A (11730013_a_at) / RFU EBF3 (11725865_a_at) / Fold change /veh EBF3 (11725865_a_at) / RFU CAMK2N1 (11719241_x_at) / Fold change /veh CAMK2N1 (11719241_x_at) / RFU C5orf56 (11738088_a_at) / Fold change /veh C5orf56 (11738088_a_at) / RFU OLFML3 (11715873_a_at) / Fold change /veh OLFML3 (11715873_a_at) / RFU LOC100653217 /// NTM (11731650_a_at) / Fold change /veh LOC100653217 /// NTM (11731650_a_at) / RFU MAPK11 (11762145_a_at) / Fold change /veh MAPK11 (11762145_a_at) / RFU FIZ1 (11724087_x_at) / Fold change /veh FIZ1 (11724087_x_at) / RFU OASL (11726364_x_at) / Fold change /veh OASL (11726364_x_at) / RFU SOX15 (11748057_x_at) / Fold change /veh SOX15 (11748057_x_at) / RFU CD79A (11719716_a_at) / Fold change /veh CD79A (11719716_a_at) / RFU HIST1H1D (11736915_at) / Fold change /veh HIST1H1D (11736915_at) / RFU CASKIN2 (11723855_a_at) / Fold change /veh CASKIN2 (11723855_a_at) / RFU LOC730098 (11760151_x_at) / Fold change /veh LOC730098 (11760151_x_at) / RFU OR4N2 (11742367_at) / Fold change /veh OR4N2 (11742367_at) / RFU PRRT2 (11749266_a_at) / Fold change /veh PRRT2 (11749266_a_at) / RFU SNX32 (11753110_a_at) / Fold change /veh SNX32 (11753110_a_at) / RFU CDHR5 (11726645_a_at) / Fold change /veh CDHR5 (11726645_a_at) / RFU RCAN1 (11760418_a_at) / Fold change /veh RCAN1 (11760418_a_at) / RFU FAM167A (11723789_a_at) / Fold change /veh FAM167A (11723789_a_at) / RFU FAM26E (11764081_at) / Fold change /veh FAM26E (11764081_at) / RFU ISYNA1 (11749810_s_at) / Fold change /veh ISYNA1 (11749810_s_at) / RFU ACY1 (11761880_at) / Fold change /veh ACY1 (11761880_at) / RFU 11764098_at / Fold change /veh 11764098_at / RFU SAMD14 (11745864_x_at) / Fold change /veh SAMD14 (11745864_x_at) / RFU NPB (11741838_a_at) / Fold change /veh NPB (11741838_a_at) / RFU TMPRSS6 (11731388_a_at) / Fold change /veh TMPRSS6 (11731388_a_at) / RFU KRTAP10-2 (11738614_at) / Fold change /veh KRTAP10-2 (11738614_at) / RFU ARHGAP8 /// PRR5-ARHGAP8 (11727945_x_at) / Fold change /veh ARHGAP8 /// PRR5-ARHGAP8 (11727945_x_at) / RFU KRTAP5-7 /// NADSYN1 (11734609_at) / Fold change /veh KRTAP5-7 /// NADSYN1 (11734609_at) / RFU RASL12 (11751679_a_at) / Fold change /veh RASL12 (11751679_a_at) / RFU CDKN2B (11736163_a_at) / Fold change /veh CDKN2B (11736163_a_at) / RFU PRF1 (11729649_at) / Fold change /veh PRF1 (11729649_at) / RFU, ZNF638 /// ZNF638-IT1 / Fold change vs veh, ZNF638 /// ZNF638-IT1 / RFU, PANK3 / Fold change vs veh, PANK3 / RFU, SH3YL1 / Fold change vs veh, SH3YL1 / RFU, ZEB2 / Fold change vs veh, ZEB2 / RFU, NRIP1 / Fold change vs veh, NRIP1 / RFU, PTTG1IP / Fold change vs veh, PTTG1IP / RFU, CAPN2 / Fold change vs veh, CAPN2 / RFU, MED14 / Fold change vs veh, MED14 / RFU, SNORA58 / Fold change vs veh, SNORA58 / RFU, C1orf63 / Fold change vs veh, C1orf63 / RFU, LRRFIP1 / Fold change vs veh, LRRFIP1 / RFU, NDUFAF7 / Fold change vs veh, NDUFAF7 / RFU, SLC12A2 / Fold change vs veh, SLC12A2 / RFU, IBTK / Fold change vs veh, IBTK / RFU, ESF1 / Fold change vs veh, ESF1 / Fold change vs veh, TMEM50B / RFU, TAOK1 / Fold change vs veh, TAOK1 / RFU, ACBD3 / Fold change vs veh, ACBD3 / RFU, TMA16 / Fold change vs veh, TMA16 / RFU, RWDD3 / Fold change vs veh, RWDD3 / RFU, BCAT1 / Fold change vs veh, BCAT1 / RFU, EDEM3 / Fold change vs veh, EDEM3 / RFU, TMEM33 / Fold change vs veh, TMEM33 / RFU, WDR75 / Fold change vs veh, WDR75 / RFU, AHCTF1 / Fold change vs veh, AHCTF1 / RFU, TFRC / Fold change vs veh, TFRC / RFU, ZDHHC17 / Fold change vs veh, ZDHHC17 / RFU, NOM1 / Fold change vs veh, NOM1 / RFU, ARL8B / Fold change vs veh, ARL8B / RFU, ZBTB11 / Fold change vs veh, ZBTB11 / RFU, TAMM41 / Fold change vs veh, TAMM41 / RFU, KIAA1704 /// LOC100996395 / Fold change vs veh, KIAA1704 /// LOC100996395 / RFU, ING1 / Fold change vs veh, ING1 / RFU, TRMT61B / Fold change vs veh, TRMT61B / RFU, FUBP3 / Fold change vs veh, FUBP3 / RFU, TP53 / Fold change vs veh, TP53 / RFU, TNKS2 / Fold change vs veh, TNKS2 / RFU, ZFP14 / Fold change vs veh, ZFP14 / RFU, ACTR2 / Fold change vs veh, ACTR2 / RFU, PPP3R1 / Fold change vs veh, PPP3R1 / RFU, PIK3R1 / Fold change vs veh, PIK3R1 / RFU, HNRNPA1 / Fold change vs veh, HNRNPA1 / RFU, RNF170 / Fold change vs veh, RNF170 / RFU, ZNF28 / Fold change vs veh, ZNF28 / RFU, RNGTT / Fold change vs veh, RNGTT / RFU, OGT / Fold change vs veh, OGT / RFU, BRD1 / Fold change vs veh, BRD1 / RFU, MARS / Fold change vs veh, MARS / RFU, ZNF655 / Fold change vs veh, ZNF655 / RFU, FAHD1 / Fold change vs veh, FAHD1 / RFU, BDP1 / Fold change vs veh, BDP1 / RFU, LRRCC1 / Fold change vs veh, LRRCC1 / RFU, ARID1A / Fold change vs veh, ARID1A / RFU, ZNF146 / Fold change vs veh, ZNF146 / RFU, ZNF330 / Fold change vs veh, ZNF330 / RFU, GPN3 / Fold change vs veh, GPN3 / RFU, C9orf123 / Fold change vs veh, C9orf123 / RFU, N4BP2L2 / Fold change vs veh, N4BP2L2 / RFU, ARFIP1 / Fold change vs veh, ARFIP1 / RFU, FAM179B / Fold change vs veh, FAM179B / RFU, BCL10 / Fold change vs veh, BCL10 / RFU, UHRF1BP1L / Fold change vs veh, UHRF1BP1L / RFU, BET1 / Fold change vs veh, BET1 / RFU, CNOT2 / Fold change vs veh, CNOT2 / RFU, ZNF268 / Fold change vs veh, ZNF268 / Fold change vs veh, ZNF507 / RFU, DGCR2 / Fold change vs veh, DGCR2 / RFU, WDSUB1 / Fold change vs veh, WDSUB1 / Fold change vs veh, HSP90B1 /// MIR3652 / RFU, ADSS / Fold change vs veh, ADSS / RFU, GK / Fold change vs veh, GK / RFU, ZNF148 / Fold change vs veh, ZNF148 / RFU, TAF9 / Fold change vs veh, TAF9 / RFU, SLC1A5 / Fold change vs veh, SLC1A5 / RFU, SLMO2 / Fold change vs veh, SLMO2 / RFU, ABCC4 / Fold change vs veh, ABCC4 / RFU, LOC101060439 /// RAP1B / Fold change vs veh, LOC101060439 /// RAP1B / RFU, RFX7 / Fold change vs veh, RFX7 / RFU, GTPBP10 / Fold change vs veh, GTPBP10 / RFU, CNEP1R1 / Fold change vs veh, CNEP1R1 / RFU, BIVM-ERCC5 /// ERCC5 / Fold change vs veh, BIVM-ERCC5 /// ERCC5 / RFU, ILF3 / Fold change vs veh, ILF3 / RFU 11762660_at / Fold change /veh 11762660_at / RFU VCAN (11757783_s_at) / Fold change /veh VCAN (11757783_s_at) / RFU DDX43 (11728927_at) / Fold change /veh DDX43 (11728927_at) / RFU KRT8 (11758188_x_at) / Fold change /veh KRT8 (11758188_x_at) / RFU NKD1 (11759106_at) / Fold change /veh NKD1 (11759106_at) / RFU SRD5A1 (11742802_a_at) / Fold change /veh SRD5A1 (11742802_a_at) / RFU TPSAB1 /// TPSB2 (11721975_s_at) / Fold change /veh TPSAB1 /// TPSB2 (11721975_s_at) / RFU GSTM3 (11746129_a_at) / Fold change /veh GSTM3 (11746129_a_at) / RFU IL23R (11737362_x_at) / Fold change /veh IL23R (11737362_x_at) / RFU TMEM51 (11727254_a_at) / Fold change /veh TMEM51 (11727254_a_at) / RFU PIWIL2 (11732686_x_at) / Fold change /veh PIWIL2 (11732686_x_at) / RFU ORM1 (11744905_x_at) / Fold change /veh ORM1 (11744905_x_at) / RFU CCDC152 (11743942_at) / Fold change /veh CCDC152 (11743942_at) / RFU ECM1 (11717891_a_at) / Fold change /veh ECM1 (11717891_a_at) / RFU IL23R (11748794_a_at) / Fold change /veh IL23R (11748794_a_at) / RFU TNFAIP8L3 (11732012_x_at) / Fold change /veh TNFAIP8L3 (11732012_x_at) / RFU MBOAT4 (11741988_at) / Fold change /veh MBOAT4 (11741988_at) / RFU 11764193_at / Fold change /veh 11764193_at / RFU TMEM53 (11763286_at) / Fold change /veh TMEM53 (11763286_at) / RFU MAGEB2 (11727129_at) / Fold change /veh MAGEB2 (11727129_at) / RFU TMEM200A (11744735_a_at) / Fold change /veh TMEM200A (11744735_a_at) / RFU CCDC152 (11751479_a_at) / Fold change /veh CCDC152 (11751479_a_at) / RFU FAM211A (11726209_a_at) / Fold change /veh FAM211A (11726209_a_at) / RFU RGS16 (11746705_a_at) / Fold change /veh RGS16 (11746705_a_at) / RFU VCAN (11755009_s_at) / Fold change /veh VCAN (11755009_s_at) / RFU RHOB (11743442_s_at) / Fold change /veh RHOB (11743442_s_at) / RFU RGS16 (11720943_a_at) / Fold change /veh RGS16 (11720943_a_at) / RFU RGS16 (11720944_at) / Fold change /veh RGS16 (11720944_at) / RFU, VPS4B / Fold change vs veh, VPS4B / RFU, CREB1 / Fold change vs veh, CREB1 / RFU, DNAJC13 / Fold change vs veh, DNAJC13 / RFU, GNAQ / Fold change vs veh, GNAQ / RFU, CDK5R1 / Fold change vs veh, CDK5R1 / RFU, ZRANB3 / Fold change vs veh, ZRANB3 / RFU, CUL4A / Fold change vs veh, CUL4A / RFU, CCNY / Fold change vs veh, CCNY / RFU, UFL1 / Fold change vs veh, UFL1 / RFU, COG3 / Fold change vs veh, COG3 / RFU, DIAPH2 / Fold change vs veh, DIAPH2 / RFU, SKA2 / Fold change vs veh, SKA2 / RFU, AFF3 / Fold change vs veh, AFF3 / RFU, LMF1 / Fold change vs veh, LMF1 / RFU, IPO11 / Fold change vs veh, IPO11 / RFU, DFFB / Fold change vs veh, DFFB / RFU, FOXP1 / Fold change vs veh, FOXP1 / RFU, CARD8 / Fold change vs veh, CARD8 / RFU, STRN3 / Fold change vs veh, STRN3 / RFU, ADK / Fold change vs veh, ADK / RFU, RASSF2 / Fold change vs veh, RASSF2 / RFU, WIPF1 / Fold change vs veh, WIPF1 / RFU, LARP1B / Fold change vs veh, LARP1B / RFU, RASA1 / Fold change vs veh, RASA1 / RFU, RB1 / Fold change vs veh, RB1 / RFU, PPFIA1 / Fold change vs veh, PPFIA1 / RFU, MAT2A / Fold change vs veh, MAT2A / RFU, CCT5 / Fold change vs veh, CCT5 / RFU, WDR92 / Fold change vs veh, WDR92 / RFU, CUX1 / Fold change vs veh, CUX1 / RFU, TTC7A / Fold change vs veh, TTC7A / RFU, TMEM135 / Fold change vs veh, TMEM135 / RFU, DEPTOR / Fold change vs veh, DEPTOR / RFU, CPM / Fold change vs veh, CPM / RFU, DNAJB6 / Fold change vs veh, DNAJB6 / RFU, CACNA2D3 / Fold change vs veh, CACNA2D3 / RFU, DTX4 / Fold change vs veh, DTX4 / RFU, TFCP2 / Fold change vs veh, TFCP2 / RFU, GMCL1 /// GMCL1P1 / Fold change vs veh, GMCL1 /// GMCL1P1 / RFU, AEBP2 / Fold change vs veh, AEBP2 / RFU, SNHG1 /// SNORD22 /// SNORD25 /// SNORD26 /// SNORD27 /// SNORD28 /// SNORD29 /// SNORD31 / Fold change vs veh, SNHG1 /// SNORD22 /// SNORD25 /// SNORD26 /// SNORD27 /// SNORD28 /// SNORD29 /// SNORD31 / Fold change (Aza/veh), C12orf56 (ProbeSet 11735607_a_at) / Fold change (ACY-1035/veh), C12orf56 (ProbeSet 11735607_a_at) / Fold change (Aza/veh), FGFR1OP (ProbeSet 11751329_s_at) / Fold change (ACY-1035/veh), FGFR1OP (ProbeSet 11751329_s_at) / Fold change (Aza/veh), VPS36 (ProbeSet 11739960_a_at) / Fold change (ACY-1035/veh), VPS36 (ProbeSet 11739960_a_at) / RFU SYPL1 (11715823_x_at) / Fold change /veh SYPL1 (11715823_x_at) / RFU IGFBP7 (11715501_s_at) / Fold change /veh IGFBP7 (11715501_s_at) / RFU REEP3 (11722064_at) / Fold change /veh REEP3 (11722064_at) / RFU IGLL1 (11728026_x_at) / Fold change /veh IGLL1 (11728026_x_at): dose or concentration left out as unconfirmed
Settings: ProbeSet 11758919_x_at; LIST D

Nc1ccc(-c2cccs2)cc1NC(=O)c1ccc2c(c1)cc(C1CC1)n2CCN1CCOCC1 [ACY-1035]
Fold change vs veh, TFCP2: 0.94
